According to publication PMC7036909, “Discovery of Selective SIRT2 Inhibitors as Therapeutic Agents in B-Cell Lymphoma and Other Malignancies” (Molecules, 2020):

Columns and labels:
SIRT1 = target: T1, SIRT1 (Homo sapiens, UniProt Q96EB6); assay: SIRT-Glo enzyme inhibition assay, SIRT1; conditions: for inhibition at 50 µM: read-out: SIRT1 percentage inhibition at 50 µM compound, 50 µM compound
T1 sequence (Q96EB6 1-747): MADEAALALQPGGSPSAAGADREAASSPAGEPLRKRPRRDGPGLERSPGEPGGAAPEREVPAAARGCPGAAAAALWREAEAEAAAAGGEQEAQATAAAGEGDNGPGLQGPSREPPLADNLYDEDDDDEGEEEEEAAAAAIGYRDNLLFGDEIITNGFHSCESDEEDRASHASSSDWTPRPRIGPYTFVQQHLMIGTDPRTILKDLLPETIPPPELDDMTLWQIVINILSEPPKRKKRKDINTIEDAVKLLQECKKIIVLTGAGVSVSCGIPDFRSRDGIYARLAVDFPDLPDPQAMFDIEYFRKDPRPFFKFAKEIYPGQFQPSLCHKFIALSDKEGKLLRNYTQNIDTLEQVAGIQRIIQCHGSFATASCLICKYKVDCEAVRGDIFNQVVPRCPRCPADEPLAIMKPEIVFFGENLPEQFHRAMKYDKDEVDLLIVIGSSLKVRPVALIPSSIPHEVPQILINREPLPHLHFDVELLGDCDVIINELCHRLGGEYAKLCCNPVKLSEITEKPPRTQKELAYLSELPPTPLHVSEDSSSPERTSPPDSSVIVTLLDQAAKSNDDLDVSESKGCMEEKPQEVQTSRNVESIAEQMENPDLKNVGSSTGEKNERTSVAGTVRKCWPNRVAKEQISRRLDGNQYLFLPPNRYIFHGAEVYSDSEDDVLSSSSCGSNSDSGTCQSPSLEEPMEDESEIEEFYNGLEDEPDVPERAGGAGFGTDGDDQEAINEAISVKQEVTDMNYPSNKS
Experimental: (§1) SIRT1, SIRT2, and SIRT3 were purchased from Cayman Chemical. Enzyme inhibition assays were performed in 96-well black plates using the SIRT-Glo Assay (Promega Corp.) according to the manufacturer’s instructions. Compounds were dissolved in 100% DMSO and to make 5- or 10-mM stock solutions. For initial enzyme inhibition tests, 50 µM of inhibitory concentration was used. […] IC50 values were determined in triplicate and reported values are averages of two independent experiments.

SIRT2 = target: T2, SIRT2 (Homo sapiens, UniProt Q8IXJ6); assay: SIRT-Glo enzyme inhibition assay, SIRT2; conditions: for inhibition at 50 µM: read-out: SIRT2 percentage inhibition at 50 µM compound, 50 µM compound; for IC50: SIRT2 IC50
T2 sequence (Q8IXJ6 1-389): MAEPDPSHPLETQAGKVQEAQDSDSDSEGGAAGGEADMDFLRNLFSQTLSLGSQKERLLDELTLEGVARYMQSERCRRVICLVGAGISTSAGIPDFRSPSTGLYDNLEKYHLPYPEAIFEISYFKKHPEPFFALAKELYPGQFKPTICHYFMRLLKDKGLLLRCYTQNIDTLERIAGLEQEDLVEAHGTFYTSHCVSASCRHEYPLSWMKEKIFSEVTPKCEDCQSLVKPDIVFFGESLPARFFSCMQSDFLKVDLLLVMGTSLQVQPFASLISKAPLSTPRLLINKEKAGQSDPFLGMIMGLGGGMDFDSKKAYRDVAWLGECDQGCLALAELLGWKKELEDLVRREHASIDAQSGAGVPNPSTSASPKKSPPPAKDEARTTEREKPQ
Experimental: as §1

SIRT3 = target: T3, SIRT3 (Homo sapiens, UniProt Q9NTG7); assay: SIRT-Glo enzyme inhibition assay, SIRT3; conditions: for inhibition at 50 µM: read-out: SIRT3 percentage inhibition at 50 µM compound, 50 µM compound
T3 sequence (Q9NTG7 1-399): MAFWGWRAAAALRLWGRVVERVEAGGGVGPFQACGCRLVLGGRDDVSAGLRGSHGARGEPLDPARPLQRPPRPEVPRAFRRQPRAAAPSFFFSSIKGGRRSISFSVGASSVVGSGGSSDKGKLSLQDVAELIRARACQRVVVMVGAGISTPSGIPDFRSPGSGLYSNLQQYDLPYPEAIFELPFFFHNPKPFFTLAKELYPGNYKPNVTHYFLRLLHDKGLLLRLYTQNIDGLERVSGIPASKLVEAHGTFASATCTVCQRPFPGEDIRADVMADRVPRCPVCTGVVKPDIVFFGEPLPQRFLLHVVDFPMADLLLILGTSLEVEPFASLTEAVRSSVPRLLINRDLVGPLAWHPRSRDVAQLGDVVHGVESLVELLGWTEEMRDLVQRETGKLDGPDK
Experimental: as §1

| inhibition at 50 µM (SIRT1) [%] | inhibition at 50 µM (SIRT2) [%] | IC50 (SIRT2) [µM] | Compound | also measured |
| --- | --- | --- | --- | --- |
| 0 | 16 | – | NC(=O)C(Cc1c(O)ccc2ccc(Br)cc12)C(=O)c1cccc(Br)c1 (stereo not shown) [Compound 32, 2-[(7-Bromo-2-hydroxynaphthalen-1-yl)methyl]-3-(3-bromophenyl)-3-oxopropanamide] | – |
| 0 | 3 | – | Cc1ccccc1C(=O)C(Cc1c(O)ccc2cc(Br)ccc12)C(N)=O (stereo not shown) [Compound 17, 2-[(6-Bromo-2-hydroxynaphthalen-1-yl)methyl]-3-(2-methylphenyl)-3-oxopropanamide] | – |
| 8 | 91 | 1.57 | NC(=O)CCNC(=O)C(Cc1c(O)ccc2cc(Br)ccc12)C(=O)c1cccc(C(F)(F)F)c1 (stereo not shown) [Compound 53] | selectivity for SIRT2 over SIRT1 (SIRT1; SIRT2 versus SIRT1): > 400 fold; selectivity for SIRT2 over SIRT3 (SIRT3; SIRT2 versus SIRT3): > 800 fold; inhibition at 50 µM (SIRT3): 16% |
| 0 | 57 | – | NC(=O)C(Cc1c(O)ccc2cc(Br)ccc12)C(=O)c1ccccc1 (stereo not shown) [Compound 18, 2-[(6-Bromo-2-hydroxynaphthalen-1-yl)methyl]-3-oxo-3-phenylpropanamide] | – |
| 28 | 86 | 7.62 | O=C(NCCCO)C(Cc1c(O)ccc2cc(Br)ccc12)C(=O)c1cccc(Br)c1 (stereo not shown) [Compound 37, 2-[(6-Bromo-2-hydroxynaphthalen-1-yl)methyl]-3-(3-bromophenyl)-N-(3-hydroxypropyl)-3-oxopropanamide] | inhibition at 50 µM (SIRT3): 46% |
| 0 | 94 | 4.75 | O=C(NCCO)C(Cc1c(O)ccc2cc(Br)ccc12)C(=O)c1cccc(Br)c1 (stereo not shown) [Compound 36, 2-[(6-Bromo-2-hydroxynaphthalen-1-yl)methyl]-3-(3-bromophenyl)-N-(2-hydroxyethyl)-3-oxopropanamide] | inhibition at 50 µM (SIRT3): 43% |
| 3 | 6 | – | O=C(NCc1cccnc1)C(Cc1c(O)ccc2cc(Br)ccc12)C(=O)c1cccc(Br)c1 (stereo not shown) [Compound 42] | – |
| 10 | 88 | – | CN1CCN(C(=O)C(Cc2c(O)ccc3cc(Br)ccc23)C(=O)c2ccc(C(F)(F)F)cc2)CC1 (stereo not shown) [Compound 45, 2-[(6-Bromo-2-hydroxynaphthalen-1-yl)methyl]-1-(4-methylpiperazin-1-yl)-3-[4-(trifluoromethyl)phenyl]-propane-1,3-dione] | – |
| 35 | 96 | 12.4 | NC(=O)C(Cc1c(O)ccc2cc(Br)ccc12)C(=O)c1ccc(F)cc1 (stereo not shown) [Compound 25, 2-[(6-Bromo-2-hydroxynaphthalen-1-yl)methyl]-3-(4-fluoro)-3-oxopropanamide] | inhibition at 50 µM (SIRT3): 39% |
| 9 | 89 | 13 | Cc1ccc(C(=O)C(Cc2c(O)ccc3cc(Br)ccc23)C(N)=O)cc1 (stereo not shown) [Compound 4, 2-[(6-Bromo-2-hydroxynaphthalen-1-yl)methyl]-3-(4-methylphenyl)-3-oxopropanamide] | IC50 (SIRT1): > 200 µM |
| 0 | 32 | – | COc1ccc2c(CC(C(N)=O)C(=O)c3cccc(Br)c3)c(O)ccc2c1 (stereo not shown) [Compound 30, 3-(3-Bromophenyl)-2-[(2-hydroxy-6-methoxynaphthalen-1-yl)methyl]-3-oxopropanamide] | – |
| 12 | 14 | – | NC(=O)C(Cc1c(O)ccc2ccccc12)C(=O)c1cccc(Br)c1 (stereo not shown) [Compound 29, 3-(3-Bromophenyl)-2-[(2-hydroxynaphthalen-1-yl)methyl]-3-oxopropanamide] | – |
| 53 | 91 | 8.95 | NC(=O)C(Cc1c(O)ccc2cc(Br)ccc12)C(=O)c1cccc(Br)c1 (stereo not shown) [Compound 23, 2-[(6-Bromo-2-hydroxynaphthalen-1-yl)methyl]-3-(3-bromo)-3-oxopropanamide] | inhibition at 50 µM (SIRT3): 41% |
| 0 | 89 | 12.6 | NC(=O)C(Cc1c(O)ccc2cc(Br)ccc12)C(=O)c1cccc(C(F)(F)F)c1 (stereo not shown) [Compound 21, 2-[(6-Bromo-2-hydroxynaphthalen-1-yl)methyl]-3-(3-trifluoromethylphenyl)-3-oxopropanamide] | inhibition at 50 µM (SIRT3): 15% |
| 0 | 37 | – | NC(=O)C(Cc1c(O)c(Br)cc2ccccc12)C(=O)c1cccc(Br)c1 (stereo not shown) [Compound 31, 2-[(3-Bromo-2-hydroxynaphthalen-1-yl)methyl]-3-(3-bromophenyl)-3-oxopropanamide] | – |
| 34 | 72 | – | COc1ccc(C(=O)C(Cc2c(O)ccc3cc(Br)ccc23)C(N)=O)cc1 (stereo not shown) [Compound 24, 2-[(6-Bromo-2-hydroxynaphthalen-1-yl)methyl]-3-(4-methoxy)-3-oxopropanamide] | – |
| 0 | 98 | 6.5 | CNC(=O)CCNC(=O)C(Cc1c(O)ccc2cc(Br)ccc12)C(=O)c1cccc(Br)c1 (stereo not shown) [Compound 44, 2-[(6-Bromo-2-hydroxynaphthalen-1-yl)methyl]-3-(3-bromophenyl)-N-[2-(methylcarbamoyl)ethyl]-3-oxo-propanamide] | – |
| – | – | – | 2-[(6-Bromo-2-hydroxynaphthalen-1-yl)methyl]-3-(4-acetamidophenyl)-3-oxopropanamide [Compound 28] | SIRT1 percentage inhibition at 50 µM compound (SIRT1): 0.0%; SIRT2 percentage inhibition at 50 µM compound (SIRT2): 58% |
| 0 | 100 | 1.9 | NC(=O)C(Cc1c(O)ccc2cc(Br)ccc12)C(=O)c1ccc(C(F)(F)F)cc1 (stereo not shown) [Compound 20, 2-[(6-Bromo-2-hydroxynaphthalen-1-yl)methyl]-3-(4-trifluoromethylphenyl)-3-oxopropanamide] | inhibition at 50 µM (SIRT3): 5% |
| 0 | 53 | – | COCCNC(=O)C(Cc1c(O)ccc2cc(Br)ccc12)C(=O)c1cccc(Br)c1 (stereo not shown) [Compound 41, 2-[(6-Bromo-2-hydroxynaphthalen-1-yl)methyl]-3-(3-bromophenyl)-N-(2-methoxyethyl)-3-oxopropanamide] | – |
| 38 | 70 | – | Cc1cccc(C(=O)C(Cc2c(O)ccc3cc(Br)ccc23)C(N)=O)c1 (stereo not shown) [Compound 16, 2-[(6-Bromo-2-hydroxynaphthalen-1-yl)methyl]-3-(3-methylphenyl)-3-oxopropanamide] | – |
| – | – | – | 2-[(6-Bromo-2-hydroxynaphthalen-1-yl)methyl]-1-[4-(trifluoromethyl)phenyl]hex-5-yne-1,3-dione [Compound 46] | SIRT1 percentage inhibition at 50 µM compound (SIRT1): 28%; SIRT2 percentage inhibition at 50 µM compound (SIRT2): 88% |
| 1 | 22 | – | O=C(c1cccc(Br)c1)C(Cc1c(O)ccc2cc(Br)ccc12)C(=O)N1CCOCC1 (stereo not shown) [Compound 38, 2-[(6-Bromo-2-hydroxynaphthalen-1-yl)methyl]-1-(3-bromophenyl)-3-(morpholin-4-yl)propane-1,3-dione] | – |
| – | – | – | 2-[(6-Bromo-2-hydroxynaphthalen-1-yl)methyl]-3-(3-bromophenyl)-N-(furan-3-ylmethyl)-3-oxopropanamide [Compound 39] | SIRT1 percentage inhibition at 50 µM compound (SIRT1): 13%; SIRT2 percentage inhibition at 50 µM compound (SIRT2): 30% |
